Measured values reported in US9375000B2, “Pesticidal arylpyrrolidines” (Bayer Intellectual Property GmbH, priority 2011, dated 2016).

Legend:
[1] = tested on: mustard beetle larvae (Phaedon cochleariae); assay: Phaedon cochleariae test (PHAECO spray application); format: in vivo; conditions: application rate 500 g/ha; after 7 days
Protocol: To produce a suitable preparation of active compound, 1 part by weight of active compound is mixed with the stated amount of solvent and emulsifier, and the concentrate is diluted with emulsifier-containing water to the desired concentration. Chinese cabbage (Brassica pekinesis) leaf-disks are sprayed with a preparation of the active ingredient of the desired concentration. Once dry, the leaf disks are infested with mustard beetle larvae (Phaedon cochleariae). After 7 days mortality in % is determined. 100% means that all beetle larvae have been killed and 0% means that none of the beetle larvae have been killed.

[2] = tested on: fall armyworm larvae (Spodoptera frugiperda); assay: Spodoptera frugiperda test (SPODFR spray application); format: in vivo; conditions: application rate 500 g/ha; after 7 days
Protocol: To produce a suitable preparation of the active compound, 1 part by weight of active compound is mixed with the stated amount of solvent and emulsifier, and the concentrate is diluted with emulsifier-containing water to the desired concentration. Maize (Zea mais) leaf sections are sprayed with a preparation of the active ingredient of the desired concentration. Once dry, the leaf sections are infested with fall armyworm larvae (Spodoptera frugiperda). After 7 days mortality in % is determined. 100% means that all caterpillars have been killed and 0% means that none of the caterpillars have been killed.

[3] = log P by HPLC on reversed phase columns (EEC directive 79/831 Annex V.A8); format: physicochemical
Protocol: Calibration was done with not branched alkan2-ones (with 3 to 16 carbon atoms) with known log P-values (measurement of log P values using retention times with linear interpolation between successive alkanones). lambda-maX-values were determined using UV-spectra from 200 nm to 400 nm and the peak values of the chromatographic signals.

[4] = tested on: two spotted spidermite (Tetranychus urticae), OP-resistant; assay: Tetranychus urticae test, OP-resistant (TETRUR spray application); format: in vivo; conditions: application rate 500 g/ha; after 6 days
Protocol: To produce a suitable preparation of active compound, 1 part by weight of active compound is mixed with the stated amount of solvent and emulsifier, and the concentrate is diluted with emulsifier-containing water to the desired concentration. French beans (Phaseolus vulgaris) which are heavily infested with all stages of the two spotted spidermite (Tetranychus urticae), are sprayed with a preparation of the active ingredient at the desired concentration. After 6 days mortality in % is determined. 100% means that all spider mites have been killed and 0% means that none of the spider mites have been killed.

[5] = tested on: Cucurbit Leaf Beetle (Aulacophora femoralis); assay: Cucurbit leaf beetle (Aulacophora femoralis) cucumber leaf dip test; format: in vivo; conditions: active compound concentration 20 ppm; after 7 days
Summary of the method: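 Cucumber leaves dipped in compound formulated with DMF and polyoxyethylene alkyl phenyl ether, diluted in water, with ammonium salt or ammonium salt plus penetration enhancer at 1000 ppm added if necessary; dried leaves placed on sterilized soil with five second-instar larvae. Kept at 25° C; larval mortality counted after 7 days.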

Row | Compound | activity (mortality) [1] [%] | activity (mortality) [2] [%] | log P [3] | activity (mortality) [4] [%] | insecticidal activity [5] [%] | logP ([3]; HPLC on reversed phase columns)
1 | Cc1cc(N2CCC(c3cc(Cl)cc(Cl)c3)(C(F)(F)F)C2O)ccc1CNC(=O)C1CC1 (mixture of isomers) [A1-77] | 100 | 100 | 3.91 |  |  | 
2 | Cc1cc(N2CCC(c3cc(Cl)cc(Cl)c3)(C(F)(F)F)C2O)ccc1CNC(=O)CC(F)(F)F (mixture of isomers) [A1-79] | 100 | 83 | 4.09 | 90 |  | 
3 | CCC(=O)NCc1cc(F)c(N2CCC(c3cc(Cl)cc(Cl)c3)(C(F)(F)F)C2O)nc1Cl (stereo not drawn) [A3-356] | 100 | 100 |  | 100 | 100 | 3.86
4 | O=C(NCc1cc(F)c(N2CCC(c3cc(Cl)cc(Cl)c3)(C(F)(F)F)C2O)nc1Cl)C1CC1 (stereo not drawn) [A3-359] | 100 | 100 |  | 100 |  | 
